Where two headings read alike, the source gives them in different places.
Tests used:
[1] = target: α7nAChR; design: method as in Gao et al., 2013; Wang et al., 2018; details: affinity for α7nAChR; ref Gao et al., 2013; Wang et al., 2018; cited from earlier work
[2] = target: α7nAChR (Mus musculus, UniProt P49582)
Protocol: ApoE^–/– mice (n = 4; weight, 25–30 g) and normal mice (n = 4; weight, 25–30 g) were randomly selected; the chosen ApoE^–/– mice were fed with 21% fat and 0.15% cholesterol supplement for 11–12 weeks.
The high-performance liquid chromatography (HPLC)-purified ^18F-ASEM [[…], dissolved in 0.2 ml normal saline, containing 5% dimethyl sulfoxide (DMSO)] was injected into tail vein of ApoE^–/– mice and normal mice. ApoE^–/– mice, positioned prone position, were anesthetized (1–2% isoflurane) through inhalation. After anesthesia, mice were injected with 5.56 MBq (150 μCi) ^18F-ASEM through the tail vein and underwent a dynamic imaging for 1 h. Dynamic PET scanning were carried out at 5, 10, 15, 30, and 60 min after injection, and biological distributions were analyzed as previously described by our group ([Wang et al., 2021]). Briefly, the regions of interest (ROIs) were cycled from 3D ordered subset expectation maximization (OSEM 3D) reconstruction images, then % ID/g value was calculated by Inveon Research Workplace 4.0 (IRW4.0).

[3] = target: T1, α7nAChR (Oryctolagus cuniculus, UniProt A0A0H4CUK0); experiment: PET/CT imaging of abdominal aorta atherosclerotic plaques in New Zealand rabbits; format: in vivo; details: model rabbits, PET/CT 30 min after injection
T1 construct: from tissue; host or cells: living New Zealand rabbits (abdominal aorta with atherosclerotic plaques)
T1 sequence (A0A0H4CUK0 25-504): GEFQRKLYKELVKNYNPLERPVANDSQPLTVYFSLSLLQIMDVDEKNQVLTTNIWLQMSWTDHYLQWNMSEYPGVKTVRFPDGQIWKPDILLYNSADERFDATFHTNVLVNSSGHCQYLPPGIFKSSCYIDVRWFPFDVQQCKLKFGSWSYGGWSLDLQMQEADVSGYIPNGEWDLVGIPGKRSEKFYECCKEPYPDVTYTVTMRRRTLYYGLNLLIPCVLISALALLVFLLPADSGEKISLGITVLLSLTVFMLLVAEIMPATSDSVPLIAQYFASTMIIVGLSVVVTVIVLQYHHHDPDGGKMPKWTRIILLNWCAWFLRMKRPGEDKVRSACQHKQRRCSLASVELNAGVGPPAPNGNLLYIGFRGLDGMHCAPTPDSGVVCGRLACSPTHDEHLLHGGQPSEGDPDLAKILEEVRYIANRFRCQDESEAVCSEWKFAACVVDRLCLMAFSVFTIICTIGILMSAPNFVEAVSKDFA
Protocol: New Zealand rabbits (n = 4; weight, 2.5–3.0 kg) were fed with high-fat diet for 14 weeks. The balloon-sprained and injured experiment was carried out at the third week after 2 weeks of high-fat diet. First, rabbits were anesthetized by 10% chloral hydrate, a 3-cm incision was conducted in the right inguinal area to expose the right femoral artery; then, the right femoral artery was punctured by Seldinger technique. Second, an angiographic catheter with double lumen balloon was sent to the aortic arch under fluoroscopy. Third, the balloon was bulged and pulled down to the bifurcation of the distal iliac artery of the abdominal aorta for three times. Lastly, the catheter and sheath were removed, and the operational incisions were sutured (Figure 2).
First, rabbits (n = 4) were anesthetized by 10% chloral hydrate (2 ml/kg). Then, ^18F-ASEM solution (74 MBq in 0.2 ml normal saline) was injected into the right ear vein of rabbits. After that, the imaging procedure was conducted 30 min after injection of ^18F-ASEM and lasted for 10 min performed by PET/CT (Discovery IQ 2.0 GE). The injection of ^18F-FDG (74 MBq in 0.2 ml normal saline) and PET/CT imaging were performed in the same strategy on the next day. The reconstruction mode was super iterative. The % ID/g value was worked out in the same protocol as mentioned above through IRW 4.0 software.

[4] = test system: α7nAChR; design: method as in Gao et al., 2013; Wang et al., 2018; details: specificity for α7nAChR; ref Gao et al., 2013; Wang et al., 2018; cited from earlier work
[5] = biological distribution of the tracer in normal mice (dynamic PET); format: in vivo

Chain of α7nAChR (Mus musculus, UniProt P49582) (P49582 23-502): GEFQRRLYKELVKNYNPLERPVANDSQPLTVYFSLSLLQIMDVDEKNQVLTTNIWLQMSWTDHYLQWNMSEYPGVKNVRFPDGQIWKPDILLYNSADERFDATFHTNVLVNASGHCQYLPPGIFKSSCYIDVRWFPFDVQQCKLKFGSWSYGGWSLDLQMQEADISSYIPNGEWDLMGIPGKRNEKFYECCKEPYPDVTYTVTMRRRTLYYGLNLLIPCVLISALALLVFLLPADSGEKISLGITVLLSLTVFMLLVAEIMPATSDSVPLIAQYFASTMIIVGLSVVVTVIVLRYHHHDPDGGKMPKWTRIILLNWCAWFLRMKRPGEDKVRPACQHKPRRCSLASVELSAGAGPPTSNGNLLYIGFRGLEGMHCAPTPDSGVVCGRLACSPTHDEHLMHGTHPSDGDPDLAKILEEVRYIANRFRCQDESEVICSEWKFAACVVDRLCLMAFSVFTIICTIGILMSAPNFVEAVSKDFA

O=S1(=O)c2cc(N3CCN4CCC3CC4)ccc2-c2cccc(F)c21 [^18F-ASEM]
Ki [1]: 0.4 nM

^18F-FDG
uptake in the carotid artery (PET imaging) ([2]; mouse, in vivo): slight

O=S1(=O)c2cc(N3CCN4CCC3CC4)ccc2-c2cccc([18F])c21 [^18F-ASEM]
uptake in plaques at abdominal arterial scratches zones [3]: remarkable uptake | uptake in the arteries ([2]; ApoE–/– mice): 4.05 ± 0.64 ID%/g | uptake in the arteries ([2]; ApoE–/– mice, 5 min after injection): 4.39 ± 1.08 ID%/g | uptake in the arteries ([2]; ApoE–/– mice, 15 min after injection): 4.20 ± 0.46 ID%/g | uptake in the arteries ([2]; ApoE–/– mice, 60 min after injection): 3.80 ± 0.43 ID%/g | uptake in the carotid artery (PET imaging) ([2]; ApoE–/– mouse): more ^18F-ASEM gathering | uptake in the arteries ([2]; control group mice): 2.40 ± 0.41 ID%/g | uptake in the arteries ([2]; control group mice, 5 min after injection): 2.35 ± 0.58 ID%/g | uptake in the arteries ([2]; control group mice, 15 min after injection): 2.46 ± 0.34 ID%/g | uptake in the arteries ([2]; control group mice, 60 min after injection): 2.70 ± 0.28 ID%/g | PET signal in the normal group ([2]; normal mice): no signal | BPND [4]: 3.9–6.6 | time of peak uptake in the kidney ([5]; after injection): 5 min | time of peak uptake in the liver ([5]; after injection): 15 min | uptake in the muscle ([5]; compared with other organs): lowest uptake

Reference: paper PMC8280778, “^18F-ASEM Imaging for Evaluating Atherosclerotic Plaques Linked to α7-Nicotinic Acetylcholine Receptor” (Frontiers in Bioengineering and Biotechnology, 2021)
